Source: ChEMBL document CHEMBL1143405, “Retapamulin inhibition of translation and 50S ribosomal subunit formation in Staphylococcus aureus cells” (Antimicrob Agents Chemother, 2007)
Values after ≈ are worked out from the molar mass of the structure shown. Active and inactive are the calls of the source. The calls are words filed in the database; no cut-off is given here.

How the values were obtained:
[1] = test system: Staphylococcus aureus; assay: Inhibition of ribosomal 50S subunit synthesis in methicillin-resistant Staphylococcus aureus A1024; type: functional, organism-based
[2] = test system: Staphylococcus aureus; assay: Effect on 16S rRNA level in wild type Staphylococcus aureus RN1786 at 20 ng/mL by agilent bioanalyzer analysis; type: functional
[3] = test system: Staphylococcus aureus; assay: Inhibition of ribosomal 30S subunit synthesis in methicillin-resistant Staphylococcus aureus A1024 at 8 ng/mL by [3H]uridine pulse-chase labeling method; type: functional, organism-based
[4] = test system: Staphylococcus aureus; assay: Reduction of 23S rRNA level in methicillin-resistant Staphylococcus aureus A1024 at 20 ng/mL by agilent bioanalyzer analysis; type: functional; design: scale not given: the % may be the effect or the level left
[5] = test system: Staphylococcus aureus; assay: Effect on 16S rRNA level in wild type Staphylococcus aureus RN1786 at 10 ng/mL by agilent bioanalyzer analysis; type: functional
[6] = test system: Staphylococcus aureus; assay: Increase in small RNA level in methicillin-resistant Staphylococcus aureus A1024 at 10 ng/mL by agilent bioanalyzer analysis; type: functional
[7] = test system: Staphylococcus aureus; assay: Inhibition of total viable cell number in wild type Staphylococcus aureus RN1786; type: functional, organism-based
[8] = test system: Staphylococcus aureus; assay: Increase in small RNA level in methicillin-resistant Staphylococcus aureus A1024 at 20 ng/mL by agilent bioanalyzer analysis; type: functional
[9] = test system: Staphylococcus aureus; assay: Reduction of 23S rRNA level in wild type Staphylococcus aureus RN1786 at 20 ng/mL by agilent bioanalyzer analysis; type: functional; design: scale not given: the % may be the effect or the level left
[10] = test system: Staphylococcus aureus; assay: Antibacterial activity against wild type Staphylococcus aureus RN1786; type: functional
[11] = test system: Staphylococcus aureus; assay: Inhibition of ribosomal 50S subunit synthesis in wild type Staphylococcus aureus RN1786; type: functional, organism-based
[12] = test system: Staphylococcus aureus; assay: Inhibition of protein synthesis in wild type Staphylococcus aureus RN1786; type: functional, organism-based
[13] = test system: Staphylococcus aureus; assay: Antibacterial activity against methicillin-resistant Staphylococcus aureus A1024; type: functional
[14] = test system: Staphylococcus aureus; assay: Inhibition of total viable cell number in methicillin-resistant Staphylococcus aureus A1024; type: functional, organism-based
[15] = test system: Staphylococcus aureus; assay: Inhibition of protein synthesis in methicillin-resistant Staphylococcus aureus A1024; type: functional, organism-based
[16] = test system: Staphylococcus aureus; assay: Increase in small RNA level in wild type Staphylococcus aureus RN1786 at 10 ng/mL by agilent bioanalyzer analysis; type: functional
[17] = test system: Staphylococcus aureus; assay: Inhibition of ribosomal 30S subunit formation in wild type Staphylococcus aureus RN1786; type: functional, organism-based
[18] = test system: Staphylococcus aureus; assay: Inhibition of ribosomal 30S subunit formation in methicillin-resistant Staphylococcus aureus A1024; type: functional, organism-based
[19] = test system: Staphylococcus aureus; assay: Reduction of 23S rRNA level in wild type Staphylococcus aureus RN1786 at 10 ng/mL by agilent bioanalyzer analysis; type: functional; design: scale not given: the % may be the effect or the level left
[20] = test system: Staphylococcus aureus; assay: Reduction of 23S rRNA level in methicillin-resistant Staphylococcus aureus A1024 at 10 ng/mL by agilent bioanalyzer analysis; type: functional; design: scale not given: the % may be the effect or the level left
[21] = test system: Staphylococcus aureus; assay: Inhibition of ribosomal 50S subunit synthesis in wild type Staphylococcus aureus RN1786 at 8 ng/mL by [3H]uridine pulse-chase labeling method; type: functional, organism-based
[22] = test system: Staphylococcus aureus; assay: Inhibition of ribosomal 50S subunit synthesis in methicillin-resistant Staphylococcus aureus A1024 at 8 ng/mL by [3H]uridine pulse-chase labeling method; type: functional, organism-based
[23] = test system: Staphylococcus aureus; assay: Effect on 16S rRNA level in methicillin-resistant Staphylococcus aureus A1024 at 10 ng/mL by agilent bioanalyzer analysis; type: functional
[24] = test system: Staphylococcus aureus; assay: Increase in small RNA level in wild type Staphylococcus aureus RN1786 at 20 ng/mL by agilent bioanalyzer analysis; type: functional
[25] = test system: Staphylococcus aureus; assay: Effect on 16S rRNA level in methicillin-resistant Staphylococcus aureus A1024 at 20 ng/mL by agilent bioanalyzer analysis; type: functional

Question: `C=C[C@]1(C)C[C@@H](OC(=O)CS[C@@H]2C[C@H]3CC[C@@H](C2)N3C)[C@]2(C)[C@H](C)CC[C@]3(CCC(=O)[C@H]32)[C@@H](C)[C@@H]1O` [RETAPAMULIN] was tested. Which IC50 [1] did it give?
Answer: 0.02 µg/mL (≈ 0.0386 µM)

Question: What about the Activity [2] of the same compound?
Answer: 19.7%

Question: What about the Activity [3] of the same compound?
Answer: inactive

Question: What about the Activity [4] of the same compound?
Answer: 12.3%

Question: What about the Activity [5] of the same compound?
Answer: 19.8%

Question: What about the Activity [6] of the same compound?
Answer: 52.3%

Question: What about the IC50 [7] of the same compound?
Answer: 0.012 µg/mL (≈ 0.0232 µM)

Question: What about the Activity [8] of the same compound?
Answer: 57.6%

Question: What about the Activity [9] of the same compound?
Answer: 16.6%

Question: What about the MIC [10] of the same compound?
Answer: 0.035 µg/mL (≈ 0.0676 µM)

Question: And the IC50 [11]?
Answer: 0.027 µg/mL (≈ 0.0521 µM)

Question: What about the IC50 [12] of the same compound?
Answer: 0.005 µg/mL (≈ 0.00966 µM)

Question: And the MIC [13]?
Answer: 0.055 µg/mL (≈ 0.106 µM)

Question: And the IC50 [14]?
Answer: 0.025 µg/mL (≈ 0.0483 µM)

Question: And the IC50 [15]?
Answer: 0.017 µg/mL (≈ 0.0328 µM)

Question: And the Activity [16]?
Answer: 68.7%

Question: And the Activity [17]?
Answer: inactive

Question: What about the Activity [18] of the same compound?
Answer: inactive

Question: What about the Activity [19] of the same compound?
Answer: 15.3%

Question: What about the Activity [20] of the same compound?
Answer: 14.1%

Question: And the Activity [21]?
Answer: Active

Question: What about the Activity [22] of the same compound?
Answer: Active

Question: What about the Activity [23] of the same compound?
Answer: 18.8%

Question: What about the Activity [24] of the same compound?
Answer: 70.6%

Question: And the Activity [25]?
Answer: 18.8%
